Source: EP4608400B1, “COMPOUND FOR TREATMENT OF PAIN” (Initiator Pharma A/S, priority 2022, dated 2024)
“Also recorded” adds a separate entry of the source.

Key:
[1] = target: T1, 5-hydroxytryptamine transporter (5-HTT or SERT) (Homo sapiens, UniProt P31645); experiment: Inhibition of human transporter in stable epithelial cell lines (5-HTT); format: cell-based; details: average of two replicates (n=2)
T1 construct: expressed in transfected cells
Procedure: Compounds were tested for their ability to inhibit the reuptake of the monoamine neurotransmitters dopamine (DA), noradrenaline (NA), and serotonin (5-HT) in synaptosomes as described in WO 97/16451 (NeuroSearch A/S). In addition, the compounds were tested in human epithelial cells expressing human transporters for 5-HT (SERT), dopamine (DAT), and norepinephrine (NET).
The results are the average of two-replicates per experiment (n=2).

[2] = Phase I crossover study, intradermal capsaicin model: safety evaluation (TEAEs); format: in vivo, human
Procedure: In order to maintain the blind, a double dummy approach was used.
Safety was assessed through AE reporting, 12-lead ECG, vital signs, physical examinations and clinical laboratory evaluations. Pharmacokinetics was assessed by blood sampling.

[3] = test system: formalin-induced flinching behaviour; experiment: Automated rat formalin test of persistent nociceptive pain; format: in vivo, Sprague-Dawley rats
Procedure: All treatments were administered s.c. in a dosing volume of 2 ml/kg 60 min prior to formalin injection.
Adult male Sprague-Dawley rats (Harlan Scandinavia, Alleroed, Denmark) were used. They were housed in Macrolon III cages (20 x 14 x 18 cm or 20 x 40 x18 cm; in groups of 2-5 per cage according to weight) containing wood-chip bedding material (3 x 1 x 4 mm). The environment was temperature (20 ± 2°C) and humidity (55 ± 15%) controlled and consisted of a light-dark cycle of 13:11 h (lights on at 06.00 h and off at 19.00 h). Food (Altromin®) and water were available ad libitum. The rats were allowed to habituate to the housing facilities for at least one week prior to being randomly assigned to behavioural experiments. At the end of each experiment rats were euthanized by cervical dislocation. All experiments were performed according to the Ethical Guidelines of the International Association for the Study of Pain (Zimmermann, 1983) and the Danish Committee for Experiments on Animals.
As highlighted in the Procedures section below 4 rats were included in each automated testing session. 4 individual treatments were assessed during the session and treatments were rotated to minimise bias associated with a particular testing chamber. […]
Assessment of formalin-induced flinching behaviour in normal, uninjured rats (body weight 180-220 g) was made with the use of an Automated Nociception Analyser (University of California, San Diego, CA; Yaksh et al., 2001). […] They were then returned to their separate observation chambers, each of which were in turn situated upon an enclosed detection device consisting of two electromagnetic coils designed to produce an electromagnetic field in which movement of the metal band could be detected. […] In an initial formalin concentration response study, five phases of nociceptive behaviour were identified and scored according to Yaksh et al., (2001); first phase (P1=0-5 min), interphase (Int=6-15 min), early second phase (P2A=16-40 min), late second phase (P2B=41-60 min) and entire second phase (P2A+P2B=16-60 min). […]

T1 sequence (P31645 whole entry): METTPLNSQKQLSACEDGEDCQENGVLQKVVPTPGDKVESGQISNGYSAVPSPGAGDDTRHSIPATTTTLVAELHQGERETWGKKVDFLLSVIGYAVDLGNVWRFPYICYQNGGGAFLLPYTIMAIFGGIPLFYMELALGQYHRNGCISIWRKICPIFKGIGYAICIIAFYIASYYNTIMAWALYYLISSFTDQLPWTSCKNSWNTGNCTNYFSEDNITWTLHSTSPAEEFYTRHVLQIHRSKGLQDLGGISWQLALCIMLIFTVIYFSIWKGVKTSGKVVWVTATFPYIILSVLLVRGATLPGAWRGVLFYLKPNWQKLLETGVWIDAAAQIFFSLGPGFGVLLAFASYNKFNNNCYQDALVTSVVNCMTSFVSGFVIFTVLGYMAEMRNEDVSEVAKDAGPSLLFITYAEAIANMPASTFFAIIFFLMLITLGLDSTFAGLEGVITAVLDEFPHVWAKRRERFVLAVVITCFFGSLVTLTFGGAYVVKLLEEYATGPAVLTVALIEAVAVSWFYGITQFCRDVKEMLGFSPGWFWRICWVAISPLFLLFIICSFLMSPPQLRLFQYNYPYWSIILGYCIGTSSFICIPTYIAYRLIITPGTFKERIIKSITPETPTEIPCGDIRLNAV

## COc1cc2ccc(O[C@@H]3C[C@H]4CC[C@@H](C3)N4)cc2oc1=O [IP2015, exo-7-[(8-azabicyclo[3.2.1]octan-3-yl)oxy]-3-methoxy-chromen-2-one]
[1]
  IC50: 0.297 nM
[2]; 5 mg IP2015 and 10 mg IP2015
  severity of all TEAEs: mild
[2]; 5 mg IP2015 single oral dose
  incidence of TEAEs (share of subjects): 29.2%
  number of TEAEs reported: 10 events
  subjects reporting TEAEs: 7 subjects
[2]; 10 mg IP2015 single oral dose
  incidence of TEAEs (share of subjects): 54.2%
  number of TEAEs reported: 19 events
  subjects reporting TEAEs: 13 subjects
[3]; 1, 3, 10, 30 mg/kg s.c., 60 min prior to 5% formalin
  flinches in P1, interphase and P2: reduced the prevalence of flinches; also recorded: robust dose-dependent inhibition
[3]; 10 or 30 mg/kg s.c., all rats
  observation in rats of the formalin test: spontaneous erections and/or ejaculations
[3]; s.c., especially during interphase and 2nd phase, stated as likely
  minimal effective dose: < 3 mg/kg
